# Results from patent US10501449B2 (priority 2018, dated 2019).
# pIC50: −log10 of the molar value.
# Key:
# hERG channels = hERG channels (Homo sapiens (Human), UniProt Q12809); assay: hERG Manual Patch Clamp Assay; format: cell-based; details: HEK 293 cells stably expressing hERG channels; for inhibition at 1 µM: human, pH 7.4, 1 uM, read-out: hERG EP % Inh @ 1 uM
# Description: hERG electrophysiology assay: The experimental compounds were assessed for hERG activity on HEK 293 cells stably expressing hERG channels using patch clamp technique. Coverslips plated with hERG expressing cells were placed in the experimental chamber and were perfused with a solution composed of (in mM): 140 NaCl, 4 KCl, 1.8 CaCl2, 1 MgCl2, 10 Glucose, 10 HEPES (pH 7.4, NaOH) at room temperature. Borosilicate patch pipettes had tip resistances of 2-4 Mohms when filled with an internal solution containing: 130 KCl, 1 MgCl2, 1 CaCl2, 10 EGTA, 10 HEPES, 5 ATP-K2 (pH 7.2, KOH). The cells were clamped at −80 mV in whole cell configuration using an Axopatch 200B (Axon instruments, Union City, Calif.) patch clamp amplifier controlled by pClamp (Axon instruments) software. Upon formation of a gigaseal, the following voltage protocol was repeatedly (0.05 Hz) applied to record tail currents: depolarization step from −80 mV to +20 mV for 2 seconds followed by a hyperpolarization step to −65 mV (3 seconds) to elicit tail currents. Compounds were applied after stabilization of tail current. First, tail currents were recorded in presence of extracellular solution alone (control) and subsequently, in extracellular solution containing increasing compound concentrations. Each compound concentration was applied for 2-5 minutes. The percentage inhibition at each concentration was calculated as reduction in peak tail current with respect to the peak tail current recorded in the presence of control solution. Data analysis was performed in a custom made template. The percent inhibitions at different concentrations were plotted to obtain a concentration response curve, which was subsequently fitted with a four parameter equation to calculate hERG IC50 value.
# hROMK (human Kir1.1) = hROMK (human Kir1.1) (Homo sapiens (Human), UniProt P48048); assay: cell-based; details: CHO T-Rex hROMK stable cell line; thallium flux; 10-point concentration response curve; read-out: Human ROMK Th Flux IC50
# hROMK (human Kir1.1), sequence (P48048 whole entry): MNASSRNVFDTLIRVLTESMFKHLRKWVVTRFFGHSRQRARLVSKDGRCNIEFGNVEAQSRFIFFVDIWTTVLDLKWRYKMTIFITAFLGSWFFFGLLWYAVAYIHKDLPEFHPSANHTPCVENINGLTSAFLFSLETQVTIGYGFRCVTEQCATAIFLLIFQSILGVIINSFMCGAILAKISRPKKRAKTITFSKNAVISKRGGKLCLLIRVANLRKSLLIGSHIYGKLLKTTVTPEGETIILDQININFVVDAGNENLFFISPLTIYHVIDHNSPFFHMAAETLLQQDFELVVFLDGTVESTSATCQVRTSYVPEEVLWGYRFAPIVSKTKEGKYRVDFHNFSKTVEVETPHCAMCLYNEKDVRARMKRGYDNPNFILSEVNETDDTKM
# hERG channels, sequence (Q12809 whole entry): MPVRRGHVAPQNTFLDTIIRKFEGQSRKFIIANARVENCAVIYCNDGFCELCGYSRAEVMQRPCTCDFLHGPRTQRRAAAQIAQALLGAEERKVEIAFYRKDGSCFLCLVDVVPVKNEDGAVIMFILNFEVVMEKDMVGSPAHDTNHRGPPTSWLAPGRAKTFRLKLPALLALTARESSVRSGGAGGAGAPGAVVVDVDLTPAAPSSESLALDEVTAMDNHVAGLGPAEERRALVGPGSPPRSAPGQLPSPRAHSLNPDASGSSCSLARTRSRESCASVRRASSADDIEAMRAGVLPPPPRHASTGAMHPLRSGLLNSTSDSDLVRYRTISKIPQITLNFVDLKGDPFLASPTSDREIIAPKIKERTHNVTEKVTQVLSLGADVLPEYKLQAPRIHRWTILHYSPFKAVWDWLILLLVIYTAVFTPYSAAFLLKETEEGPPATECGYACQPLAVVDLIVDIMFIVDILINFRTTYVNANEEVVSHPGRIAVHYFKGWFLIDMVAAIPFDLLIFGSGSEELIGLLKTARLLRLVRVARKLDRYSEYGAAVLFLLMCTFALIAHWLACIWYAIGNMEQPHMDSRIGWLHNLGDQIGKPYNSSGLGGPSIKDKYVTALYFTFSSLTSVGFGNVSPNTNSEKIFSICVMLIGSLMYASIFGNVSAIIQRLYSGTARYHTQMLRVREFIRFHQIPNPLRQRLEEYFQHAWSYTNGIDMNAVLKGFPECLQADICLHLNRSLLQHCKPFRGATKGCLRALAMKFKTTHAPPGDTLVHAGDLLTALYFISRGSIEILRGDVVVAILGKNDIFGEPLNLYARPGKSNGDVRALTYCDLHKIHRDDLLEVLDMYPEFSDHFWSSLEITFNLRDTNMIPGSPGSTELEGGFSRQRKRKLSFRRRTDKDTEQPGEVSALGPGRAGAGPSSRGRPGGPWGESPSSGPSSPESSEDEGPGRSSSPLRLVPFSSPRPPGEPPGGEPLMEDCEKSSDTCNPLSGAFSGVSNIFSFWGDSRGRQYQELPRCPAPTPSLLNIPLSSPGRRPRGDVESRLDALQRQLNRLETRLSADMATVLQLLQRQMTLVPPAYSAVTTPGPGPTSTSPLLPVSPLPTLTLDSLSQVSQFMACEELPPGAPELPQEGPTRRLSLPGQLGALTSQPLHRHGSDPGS
SMILES,inhibition at 1 µM (hERG channels) [%],pIC50 (hROMK (human Kir1.1)),hERG EP % Inh @ 1 uM (hERG channels; 1 uM) [%]
"Cc1cc(-n2ncc(CN3CCN[C@H](c4ccc5c(c4C)COC5=O)C3)c2C)ncc1C#N [Example 146-I, (R)-4-methyl-6-(5-methyl-4-((3-(4-methyl-1-oxo-1,3-dihydroisobenzofuran-5-yl)piperazin-1-yl)methyl)-1H-pyrazol-1-yl)nicotinonitrile]",16,7.60,
"Cc1cc(N2CCC(CN3CCN[C@H](c4ccc5c(c4C)COC5=O)C3)C2)ncc1C#N (single isomer, unassigned) [Example 156-I]",51,7.85,
"COc1cc(-c2ccc(CN3CCO[C@H](c4ccc5c(c4C)COC5=O)C3)cn2)ncc1C#N [Example 35-I, (R)-4-methoxy-5′-((2-(4-methyl-1-oxo-1,3-di-hydroisobenzofuran-5-yl)morpholino)methyl)-[2,2′-bipyridine]-5-carbonitrile]",20,6.92,
"Cc1cc(-c2nc(CN3C[C@@H](c4ccc5c(c4C)COC5=O)N[C@@H](C)C3)no2)ncc1C#N [Example 259-I, 4-methyl-6-(3-(((3S,5R)-3-methyl-5-(4-methyl-1-oxo-1,3-dihydroisobenzofuran-5-yl)piperazin-1-yl)methyl)-1,2,4-oxadiazol-5-yl)nicotinonitrile]",8.6,7.28,
"COc1cc(N2CC(CN3C[C@@H](c4ccc5c(c4C)COC5=O)N[C@@H](C)C3)CC2=O)ncc1C#N (single isomer, unassigned) [Example 170-I]",26,7.41,
"Cc1nc(-n2ncc(CN3C[C@H](CO)N[C@H](c4ccc5c(c4C)COC5=O)C3)n2)ncc1C#N [Example 104-I, 2-(4-(((3R,5R)-3-(hydroxymethyl)-5-(4-methyl-1-oxo-1,3-dihydroisobenzofur-an-5-yl)piperazin-1-yl)methyl)-2H-1,2,3-triazol-2-yl)-4-methylpyrimidine-5-carbonitrile]",3.4,7.44,
"COc1nn(-c2ccc(CN3CCN[C@H](c4ccc5c(c4C)COC5=O)C3)cn2)cc1C#N [Example 223-I, (R)-3-methoxy-1-(5-((3-(4-methyl-1-oxo-1,3-dihydroisobenzofuran-5-yl)piperazin-1-yl)methyl)pyridin-2-yl)-1H-pyrazole-4-carbonitrile]",56,7.74,
"COc1nc(-n2cc(CN3C[C@@H](c4ccc5c(c4C)COC5=O)N[C@@H](C)C3)cn2)ccc1C#N [Example 93-I, 2-methoxy-6-(4-(((3S,5R)-3-methyl-5-(4-methyl-1-oxo-1,3-dihydroisobenzofur-an-5-yl)piperazin-1-yl)methyl)-1H-pyrazol-1-yl)nicotinonitrile]",23,7.36,
"COc1cc(-n2cnc(CN3CCO[C@H](c4ccc5c(c4C)COC5=O)C3)c2)ncc1C#N [Example 27-I, (R)-4-methoxy-6-(4-((2-(4-methyl-1-oxo-1,3-dihydroisobenzofuran-5-yl)morpholino)methyl)-1H-imidazol-1-yl) nicotinonitrile]",11,7.49,
"COc1cc(-n2cc(CCN3CCO[C@H](c4ccc5c(c4C)COC5=O)C3)cn2)ncc1C#N [Example 11-I, (R)-4-methoxy-6-(4-(2-(2-(4-methyl-1-oxo-1,3-dihydroisobenzofuran-5-yl)morpholino)ethyl)-1H-pyrazol-1-yl)nicotinonitrile]",40,7.52,
"Cc1c([C@@H]2CN(Cc3cnc(-n4cc(C#N)c(C5CC5)n4)nc3)CCN2)ccc2c1COC2=O [Example 218-I, (R)-3-cyclopropyl-1-(5-((3-(4-methyl-1-oxo-1,3-dihydroisobenzofuran-5-yl)piperazin-1-yl)methyl)pyrimidin-2-yl)-1H-pyrazole-4-carbonitrile]",39,7.48,
"Cc1cc(-n2cc(CN3CC(O)C(c4ccc5c(c4C)COC5=O)C3)cn2)ncc1C#N (single isomer, unassigned) [Example 211-I, 6-(4-((3-hydroxy-4-(4-methyl-1-oxo-1,3-dihydroisobenzofuran-5-yl)pyrrolidin-1-yl)methyl)-1H-pyrazol-1-yl)-4-methylnicotinonitrile]",58,7.52,
"Cc1cc(-n2cc(CN3C[C@@H](c4ccc5c(c4C)COC5=O)OC3=O)cn2)ncc1C#N [Example 9-I, (R)-4-methyl-6-(4-((5-(4-methyl-1-oxo-1,3-dihydroisobenzofuran-5-yl)-2-oxooxazolidin-3-yl)methyl)-1H-pyrazol-1-yl)nicotinonitrile]",47,7.36,
"Cc1cc(-n2cc(CN3CC[C@@H](O)[C@H](c4ccc5c(c4C)COC5=O)C3)nn2)ncc1C#N [Example 84-I, 6-(4-(((3R,4R)-4-hydroxy-3-(4-methyl-1-oxo-1,3-dihydroisobenzofuran-5-yl)piperidin-1-yl)methyl)-1H-1,2,3-triazol-1-yl)-4-methylnicotinonitrile]",6.7,7.28,
"Cc1cc(-n2cnc(CN3CC[C@@H](O)[C@H](c4ccc5c(c4C)COC5=O)C3)c2)ncc1C#N [Example 163-I, 6-(4-(((3R,4R)-4-hydroxy-3-(4-methyl-1-oxo-1,3-dihydroisobenzofuran-5-yl)piperidin-1-yl)methyl)-1H-imidazol-1-yl)-4-methylnicotinonitrile]",4.5,7.54,
"Cc1cc(-c2ncc(CN3CC[C@@H](O)[C@H](c4ccc5c(c4C)COC5=O)C3)s2)ncc1C#N [Example 125-I, 6-(5-(((3R,4R)-4-hydroxy-3-(4-methyl-1-oxo-1,3-dihydroisobenzofuran-5-yl)piperidin-1-yl)methyl)thiazol-2-yl)-4-methylnicotinonitrile]",8.3,7.52,
"Cc1cc(-n2cnc(CN3C[C@@H](c4ccc5c(c4C)COC5=O)N[C@@H](C)C3)n2)ncc1C#N [Example 122-I, 4-methyl-6-(3-(((3S,5R)-3-methyl-5-(4-methyl-1-oxo-1,3-dihydroisobenzofuran-5-yl)piperazin-1-yl)methyl)-1H-1,2,4-triazol-1-yl)nicotinonitrile]",6.6,7.30,
"Cc1cc(C#N)ccc1-n1cc(CN2CCO[C@H](c3ccc4c(c3C)COC4=O)C2)cn1 [Example 47-I, (R)-3-methyl-4-(4-((2-(4-methyl-1-oxo-1,3-dihydroisobenzofuran-5-yl)morpholino)methyl)-1H-pyrazol-1-yl) benzonitrile]",49,7.31,
"COc1cc(-c2ccc(CN3CCN[C@H](c4ccc5c(c4C)COC5=O)C3)c(OC)n2)ncc1C#N [Example 143-I, (R)-4,6′-dimethoxy-5′-((3-(4-methyl-1-oxo-1,3-dihydroisobenzofuran-5-yl)piperazin-1-yl)methyl)-[2,2′-bipyridine]-5-carbonitrile]",49,7.20,
"Cc1cn(-c2ccc(CN3CCN[C@H](c4ccc5c(c4C)COC5=O)C3)cn2)nc1C#N [Example 242-I, (R)-4-methyl-1-(5-((3-(4-methyl-1-oxo-1,3-dihydroisobenzofuran-5-yl)piperazin-1-yl)methyl)pyridin-2-yl)-1H-pyrazole-3-carbonitrile]",36,8.00,
"COc1cc(N2CCC(CN3CCN[C@H](c4ccc5c(c4C)COC5=O)C3)C2)ncc1C#N (single isomer, unassigned) [Example 155-I]",,7.96,26
"Cc1c([C@@H]2CN(Cc3ccc(-n4cc(C#N)c(OC(F)F)n4)nc3)CCN2)ccc2c1COC2=O [Example 219-I, (R)-3-(difluoromethoxy)-1-(5-((3-(4-methyl-1-oxo-1,3-dihydroisobenzofuran-5-yl)piperazin-1-yl)methyl)pyridin-2-yl)-1H-pyrazole-4-carbonitrile]",75,7.68,
"Cc1cn(-c2ccc(CN3CCN[C@H](c4ccc5c(c4C)COC5=O)C3)c(C)n2)cn1 [Example 142-I, (R)-4-methyl-5-(4-((2-methyl-6-(4-methyl-1H-imidazol-1-yl)pyridin-3-yl)methyl)piperazin-2-yl)isobenzofuran-1(3H)-one]",8.5,7.12,
"Cc1c([C@@H]2CN(Cc3ccc(-n4cnc(C#N)c4)nc3)CCO2)ccc2c1COC2=O [Example 37-I, (R)-1-(5-((2-(4-methyl-1-oxo-1,3-dihydroiso-benzofuran-5-yl)morpho-lino)methyl)pyridin-2-yl)-1H-imidazole-4-carbonitrile]",6.2,7.80,
"Cc1cc(N2CCOC2=O)cc(-n2cc(CN3C[C@@H](c4ccc5c(c4C)COC5=O)N[C@@H](C)C3)cn2)n1 [Example 251-I, 3-(2-methyl-6-(4-(((3S,5R)-3-methyl-5-(4-methyl-1-oxo-1,3-dihydroisobenzofuran-5-yl)piperazin-1-yl)methyl)-1H-pyrazol-1-yl)pyridin-4-yl)oxazolidin-2-one]",7.6,7.21,
"COc1nn(-c2ncc(CN3CCN[C@H](c4ccc5c(c4C)COC5=O)C3)cn2)cc1C#N [Example 227-I, (R)-3-methoxy-1-(5-((3-(4-methyl-1-oxo-1,3-dihydroisobenzofuran-5-yl)piperazin-1-yl)methyl)pyrimidin-2-yl)-1H-pyrazole-4-carbonitrile]",18,7.55,
"Cc1c([C@@H]2CN(Cc3cnc(-n4cnc(C#N)c4)s3)CCN2)ccc2c1COC2=O [Example 21-I, (R)-1-(5-((3-(4-methyl-1-oxo-1,3-dihydroisobenzofuran-5-yl)piperazin-1-yl)methyl)thiazol-2-yl)-1H-imidazole-4-carbonitrile]",8.5,7.03,
